From US6949585B2, “Cyclooctanone derivatives and cyclodecanone derivative, and use thereof” (Eisai Co., Ltd., priority 2001, dated 2005)

Columns and labels:
Type in all cases: cell-based
[1] = tested on: TNF-α production; experiment: TNF-α production by LPS-stimulated human peripheral blood monocytes (ELISA); conditions: LPS 10 ng/ml, 18 h, compound 0.1-100 μM
Protocol: (§1) TNF-α and IL-6 production inhibitory activity of the compound of the present invention was evaluated by determining the amounts of TNF-α and IL-6 produced by the human peripheral blood monocyte stimulated with lipopolysaccharide(LPS). Briefly, human peripheral blood monocyte fraction was isolated from the peripheral venous blood from healthy male volunteers by density gradient centrifugation with Ficoll-Paque (Pharmacia). The monocytes were suspended in RPMI 1640 medium (Gibco BRL) containing 10% FCS and seeded at 5×10^5 cell/160 μl in a 96-well plate.
(§2) The present compound was added to the monocytes cultured and the mixture was left at 37° C. for thirty minutes. Then the monocytes were stimulated by adding LPS (Sigma) at a final concentration of 10 ng/ml and left 37° C. for eighteen hours. For control, the cells were used wherein LPS was added to the cell at a final concentration of 10 ng/ml without the present compound.
(§3) The amount of each of TNF-α and IL-6, which were released in the culture supernatant, was measured using an ELISA kit (R & D). The inhibitory rate (%) of TNF-α and IL-6 production as compared to control was calculated using the following formula from the amounts of TNF-α and […] thus measured: [formula]
(§4) In addition, the concentration of the present compound to inhibit 50% (IC50) was calculated by plotting the inhibitory rate (%) of IL-6 and TNF-α production obtained by varying a final concentration of the present compound of from 0.1 μM to 100 μM.

[2] = tested on: IL-2 production; experiment: IL-2 production by PHA-stimulated human peripheral lymphocytes (ELISA); conditions: PHA 10 μl/ml, 48 h, compound 0.1-100 μM
Protocol: Human peripheral lymphocytes were stimulated with mitogen (PHA) to induce IL-2 production. The amount of IL-2 produced was measured to evaluate the inhibitory effect of the present compound. Briefly, human peripheral blood monocyte fraction was isolated in a manner similar to Test Example 1.
The monocytes were suspended in RPM 1640 medium (Gibco BRL) containing 10% FCS and seeded in a petri dish and left at 37° C. for an hour. Then, the cells (lymphocytes) which were not attached to the wall of the petri desh were isolated by centrifugation. The lymphocytes collected were suspended in the medium and seeded at 5×10^5 cell/160 μl in a 96-well plate.
The present compound was added to the lymphocytes cultured and the mixture was left at 37° C. for thirty minutes. Then, the cells were stimulated by adding PHA (Difco) at a final concentration of 10 μl/ml and left at 37° C. for forty eight hours. For control, the cells were used wherein PHA was added to the cell at a final concentration of 10 μl/ml without the present compound.
The amount of IL-2 which was released in the culture supernatant was measured using an ELISA kit (BioSource International). The inhibitory rate (%) of IL-2 production as compared to control was calculated using the following formula from IL-2 amounts thus measured: [formula]
In addition, the concentration of the present compound to inhibit 50% (IC50) was calculated by plotting the inhibitory rate (%) of IL-2 production obtained by varying a final concentration of the present compound of from 0.1 μM to 100 μM.

[3] = tested on: IL-6 production; experiment: IL-6 production by LPS-stimulated human peripheral blood monocytes (ELISA); conditions: Monocyte, LPS 10 ng/ml, 18 h, compound 0.1-100 μM
Protocol: as §1, §2, §3, §4

Compound	IC50 ([1]; Monocyte)	IC50 ([2]; Lymphocyte)	IC50 [3]	IC50 [1]	IC50 [2]
O=C1C=CCC(CCc2ccccc2)C[C@@H](O)[C@H]1O (mixture of isomers) [Example 84 (b), (7RS,8RS)-7,8-dihydroxy-5-phenethyl-2-cycloocten-1-one]	8.8 µM	3600 nM			
COc1ccc(C(=O)OC2CC/C=C\C(=O)[C@H](O)[C@H](O)CC2)c(O)c1 (mixture of isomers) [Example 93, Z-(7RS,8RS)-7,8-dihydroxy-6-oxo-4-cyclodecenyl (2-hydroxy-4-methoxy)benzoate]				1.8 µM	2000 nM
O=C1/C=C\CCC(Cc2ccccc2)CCCC1 (centres unmarked) [Example 22 (a), Z-6-benzyl-2-cyclodecen-1-one]	28.1 µM	2600 nM			
O=C(OC1CC/C=C\C(=O)[C@H](O)[C@H](O)CC1)c1ccccc1O (mixture of isomers) [Example 92, Z-(7RS,8RS)-7,8-dihydroxy-6-oxo-4-cyclodecenyl (2-hydroxy)benzoate]	1.7 µM	1200 nM			
O=C1/C=C\CCC(Cc2ccccc2)CC[C@@H](O)[C@H]1O (mixture of isomers) [Example 87, Z-(9RS,10RS)-6-benzyl-9,10-dihydroxy-2-cyclodecen-1-one]	12.4 µM	3000 nM			
COc1ccc(C(=O)OC2CC=CC(=O)CCC2)c(O)c1 (centres unmarked) [Example 47, 5-Oxo-3-cyclooctenyl (2-hydroxy-4-methoxy)benzoate]				0.5 µM	140 nM
O=C1C=CCC(CCc2ccccc2O)C[C@@H](O)[C@H]1O (mixture of isomers) [Example 85 (a), (7RS,8RS)-7,8-dihydroxy-5-[2-(2-hydroxyphenyl)ethyl]-2-cycloocten-1-one]	2.2 µM	64900 nM			

Second part, led by results:

IC50 ([1]; Monocyte)	IC50 ([2]; Lymphocyte)	IC50 [3]	Compound	IC50 [1]	IC50 [2]
13.7 µM	1700 nM	21.6 µM	O=C1C=CCC(CCc2ccccc2)CCC1 (centres unmarked) [Example 5, 5-Phenethyl-2-cycloocten-1-one]		
5.9 µM	2100 nM	6.8 µM	O=C1C=CCC(CCc2cccc(O)c2)CCC1 (centres unmarked) [Example 18, 5-[2-(3-Hydroxyphenyl)ethyl]-2-cycloocten-1-one]		
13.6 µM		23.3 µM	O=C1C=CCC(Cc2ccccc2)CCC1 (centres unmarked) [Example 4, 5-Benzyl-2-cycloocten-1-one]		
3.4 µM			O=C(OC1CC=CC(=O)[C@H](O)[C@H](O)C1)c1ccccc1O (mixture of isomers) [Example 90 (a), (6RS,7RS)-6,7-dihydroxy-5-oxo-3-cyclooctenyl 2-hydroxybenzoate]		
